Reference: DBAASP
Values after ≈ are worked out from the molar mass of the structure shown. Each block holds one compound with its values, some of them ahead of it.

Experiments:
Assay in all cases: ≥ marks a high value that may be exact or a test limit, other limits are often not marked, values filed in µg/mL are converted to µM
[1] = tested on: Pseudomonas aeruginosa Ps4
Bacillus subtilis = tested on: Bacillus subtilis
[2] = tested on: Candida albicans F7-39/IDE99
Escherichia coli B = tested on: Escherichia coli B
Pseudomonas aeruginosa = tested on: Pseudomonas aeruginosa
Staphylococcus aureus = tested on: Staphylococcus aureus
Bacillus subtilis 168 = tested on: Bacillus subtilis 168
Botrytis cinerea = tested on: Botrytis cinerea
[3] = tested on: Candida albicans ATCC 10231
[4] = tested on: Escherichia coli ATCC 11775
[5] = tested on: Staphylococcus aureus ATCC 12600
Acinetobacter baumannii = tested on: Acinetobacter baumannii
[6] = tested on: Escherichia coli ATCC 25922
Escherichia coli K88 = tested on: Escherichia coli K88
Escherichia coli K99 = tested on: Escherichia coli K99
Escherichia coli UB1005 = tested on: Escherichia coli UB1005
Escherichia coli = tested on: Escherichia coli
Klebsiella pneumoniae = tested on: Klebsiella pneumoniae
[7] = tested on: Pseudomonas aeruginosa ATCC 27853
[8] = tested on: Pseudomonas aeruginosa CICC 21625
[9] = tested on: Pseudomonas aeruginosa CICC 21630
[10] = tested on: Pseudomonas aeruginosa PAO1
[11] = tested on: Salmonella enterica subsp. enterica serovar Pullorum C79-13
[12] = tested on: Salmonella enterica subsp. enterica serovar Typhimurium ATCC 14028
[13] = tested on: Salmonella enterica subsp. enterica serovar Typhimurium C77-31

- MIC [1]: ≥ 93.8 µM
Structure (SMILES): CC[C@H](C)[C@H](NC(=O)[C@H](CCCN=C(N)N)NC(=O)[C@H](Cc1c[nH]c2ccccc12)NC(=O)CNC(=O)[C@H](CCCN=C(N)N)NC(=O)[C@H](Cc1c[nH]c2ccccc12)NC(=O)[C@@H](N)Cc1ccccc1)C(=O)N[C@@H](CCCN=C(N)N)C(=O)N[C@@H](CCCN=C(N)N)C(N)=O [FWRGWRIRR]

- MIC (Bacillus subtilis): ≥ 35 µM
- MIC [2]: ≥ 100 µM
- MIC (Escherichia coli B): ≥ 100 µM
- MIC (Pseudomonas aeruginosa): > 100 µM
- MIC (Staphylococcus aureus): > 100 µM
Structure (SMILES): CC[C@H](C)[C@H](NC(=O)[C@H](C)NC(=O)[C@H](C)NC(=O)[C@H](CC(C)C)NC(=O)[C@@H](NC(=O)[C@H](CCCCN)NC(=O)[C@H](CCCN=C(N)N)NC(=O)[C@@H]1CCCN1C(=O)[C@H](CC(C)C)NC(=O)CN)[C@@H](C)CC)C(=O)N[C@@H](C)C(=O)N[C@@H](CCCCN)C(=O)N[C@@H](CCCCN)C(=O)N[C@@H](CCCCN)C(N)=O [GLPRKILAAIAKKK]

- MIC (Bacillus subtilis 168): 0.8 µM (≈ 1.2 µg/mL)
- MIC [2]: 4.5 µM (≈ 6.72 µg/mL)
- MIC (Escherichia coli B): 2.5 µM (≈ 3.73 µg/mL)
- MIC (Pseudomonas aeruginosa): 10.7 µM (≈ 16 µg/mL)
- MIC (Staphylococcus aureus): 4.5 µM (≈ 6.72 µg/mL)
Structure (SMILES): CC[C@H](C)[C@H](NC(=O)[C@H](Cc1cnc[nH]1)NC(=O)[C@H](CCCCN)NC(=O)[C@H](CC(C)C)NC(=O)[C@H](CC(C)C)NC(=O)[C@H](CCCCN)NC(=O)[C@H](CCSC)NC(=O)[C@H](Cc1c[nH]c2ccccc12)NC(=O)[C@H](CCCCN)NC(=O)CN)C(=O)N[C@@H](CC(C)C)C(=O)N[C@@H](CCCCN)C(N)=O [GKWMKLLKHILK]

- MIC [1]: ≥ 165 µM
Structure (SMILES): CC[C@H](C)[C@H](NC(=O)[C@H](CC(N)=O)NC(=O)[C@H](CCCN=C(N)N)NC(=O)[C@H](CCC(N)=O)NC(=O)[C@H](Cc1c[nH]c2ccccc12)NC(=O)[C@@H](NC(=O)[C@@H](N)Cc1ccccc1)[C@@H](C)CC)C(=O)N[C@@H](CCCN=C(N)N)C(=O)N[C@@H](CCCCN)C(=O)N[C@H](C(=O)N[C@@H](CCCN=C(N)N)C(N)=O)C(C)C [FIWQRNIRKVR]

- MIC (Botrytis cinerea): 5.31 µM (≈ 7.99 µg/mL)
- MIC [3]: 33.2 µM (≈ 50 µg/mL)
- MIC [4]: ≥ 66.3 µM
- MIC [5]: ≥ 66.3 µM
Structure (SMILES): CC[C@H](C)[C@H](NC(=O)[C@H](C)NC(=O)[C@H](CO)NC(=O)[C@@H](NC(=O)[C@@H](NC(=O)[C@@H](NC(=O)[C@H](Cc1cnc[nH]1)NC(=O)[C@H](CC(C)C)NC(=O)[C@H](CC(=O)O)NC(=O)[C@@H](N)CCCCN)[C@@H](C)O)C(C)C)C(C)C)C(=O)N[C@@H](CC(C)C)C(=O)N[C@@H](CCC(N)=O)C(=O)N[C@@H](C)C(=O)N[C@@H](CC(C)C)C(N)=O [KDLHTVVSAILQAL]

- MIC [1]: ≥ 177 µM
Structure (SMILES): CC[C@H](C)[C@H](N)C(=O)N[C@@H](Cc1c[nH]c2ccccc12)C(=O)N[C@@H](CCC(N)=O)C(=O)N[C@@H](CCCN=C(N)N)C(=O)N[C@@H](CC(N)=O)C(=O)N[C@H](C(=O)N[C@@H](CCCN=C(N)N)C(=O)N[C@H](C(=O)N[C@@H](CCCN=C(N)N)C(=O)N[C@@H](CCCN=C(N)N)C(N)=O)[C@@H](C)CC)[C@@H](C)CC [IWQRNIRIRR]

- MIC (Botrytis cinerea): 5 µM (≈ 7.36 µg/mL)
- MIC [3]: 100 µM (≈ 147 µg/mL)
- MIC [4]: ≥ 100 µM
- MIC [5]: ≥ 50 µM
Structure (SMILES): CC(C)C[C@H](NC(=O)[C@H](C)NC(=O)[C@H](CO)NC(=O)[C@H](C)NC(=O)[C@@H](NC(=O)[C@H](CCCCN)NC(=O)[C@H](CCCCN)NC(=O)[C@@H](NC(=O)[C@H](CC(C)C)NC(=O)CNC(=O)[C@H](CC(C)C)NC(=O)[C@H](CC(C)C)NC(=O)[C@H](CC(=O)O)NC(=O)[C@@H](N)Cc1ccccc1)C(C)C)C(C)C)C(N)=O [FDLLGLVKKVASAL]

- MIC [4]: ≥ 100 µM
- MIC [5]: ≥ 100 µM
Structure (SMILES): CC[C@H](C)[C@H](N)C(=O)N[C@@H](CC(C)C)C(=O)N1CCC[C@H]1C(=O)N[C@H](C(=O)N[C@@H](CC(C)C)C(=O)N[C@@H](C)C(=O)N1CCC[C@H]1C(=O)N[C@@H](CC(C)C)C(=O)N[C@H](C(=O)NCC(=O)NCC(=O)N[C@@H](CC(C)C)C(=O)N[C@@H](CC(C)C)C(N)=O)[C@@H](C)CC)[C@@H](C)CC [ILPILAPLIGGLL]

- MIC (Acinetobacter baumannii): 4 µM (≈ 7.29 µg/mL)
- MIC [6]: 16 µM (≈ 29.2 µg/mL)
- MIC (Escherichia coli K88): 16 µM (≈ 29.2 µg/mL)
- MIC (Escherichia coli K99): 16 µM (≈ 29.2 µg/mL)
- MIC (Escherichia coli UB1005): 16 µM (≈ 29.2 µg/mL)
- MIC (Escherichia coli): 32 µM (≈ 58.4 µg/mL)
- MIC (Klebsiella pneumoniae): > 64 µM
- MIC [7]: > 64 µM
- MIC [8]: ≥ 64 µM
- MIC [9]: ≥ 64 µM
- MIC [10]: > 64 µM
- MIC (Pseudomonas aeruginosa): > 64 µM
- MIC [11]: ≥ 32 µM
- MIC [12]: > 64 µM
- MIC [13]: ≥ 64 µM
Structure (SMILES): CC(C)C[C@H](NC(=O)[C@@H]1CCCN1C(=O)[C@H](CCCCN)NC(=O)[C@H](CC(C)C)NC(=O)[C@H](CC(C)C)NC(=O)[C@@H]1CCCN1C(=O)[C@H](CCCCN)NC(=O)[C@H](CC(C)C)NC(=O)[C@H](CC(C)C)NC(=O)[C@@H]1CCCN1C(=O)[C@H](CCCCN)NC(=O)[C@H](CC(C)C)NC(=O)[C@H](CC(C)C)NC(=O)[C@@H]1CCCN1C(=O)[C@H](CCCCN)NC(=O)[C@@H](N)CC(C)C)C(N)=O [LKPLLKPLLKPLLKPL]

- MIC [1]: ≥ 153 µM
Structure (SMILES): CC[C@H](C)[C@H](NC(=O)[C@H](CC(N)=O)NC(=O)[C@H](CCCN=C(N)N)NC(=O)[C@H](CCC(N)=O)NC(=O)[C@H](Cc1c[nH]c2ccccc12)NC(=O)[C@@H](N)CCCN=C(N)N)C(=O)N[C@@H](CCCN=C(N)N)C(=O)N[C@@H](CCCCN)C(=O)N[C@@H](Cc1ccc(O)cc1)C(=O)N[C@@H](CCCN=C(N)N)C(=O)N[C@@H](CCCN=C(N)N)C(N)=O [RWQRNIRKYRR]

- MIC (Acinetobacter baumannii): 2 µM (≈ 6.36 µg/mL)
- MIC [6]: 8 µM (≈ 25.4 µg/mL)
- MIC (Escherichia coli K88): 2 µM (≈ 6.36 µg/mL)
- MIC (Escherichia coli K99): 2 µM (≈ 6.36 µg/mL)
- MIC (Escherichia coli UB1005): 16 µM (≈ 50.9 µg/mL)
- MIC (Escherichia coli): 16 µM (≈ 50.9 µg/mL)
- MIC (Klebsiella pneumoniae): 16 µM (≈ 50.9 µg/mL)
- MIC [7]: > 64 µM
- MIC [8]: ≥ 64 µM
- MIC [9]: ≥ 64 µM
- MIC [10]: > 64 µM
- MIC (Pseudomonas aeruginosa): > 64 µM
- MIC [11]: ≥ 64 µM
- MIC [12]: 64 µM (≈ 203 µg/mL)
- MIC [13]: ≥ 64 µM
Structure (SMILES): CC[C@H](C)[C@H](N)C(=O)N[C@@H](CCCCN)C(=O)N1CCC[C@H]1C(=O)N[C@H](C(=O)N[C@H](C(=O)N[C@@H](CCCCN)C(=O)N1CCC[C@H]1C(=O)N[C@H](C(=O)N[C@H](C(=O)N[C@@H](CCCCN)C(=O)N1CCC[C@H]1C(=O)N[C@H](C(=O)N[C@H](C(=O)N[C@@H](CCCCN)C(=O)N1CCC[C@H]1C(=O)N[C@H](C(=O)N[C@H](C(=O)N[C@@H](CCCCN)C(=O)N1CCC[C@H]1C(=O)N[C@H](C(=O)N[C@H](C(=O)N[C@@H](CCCCN)C(=O)N1CCC[C@H]1C(=O)N[C@H](C(=O)N[C@H](C(=O)N[C@@H](CCCCN)C(=O)N1CCC[C@H]1C(=O)N[C@H](C(N)=O)[C@@H](C)CC)[C@@H](C)CC)[C@@H](C)CC)[C@@H](C)CC)[C@@H](C)CC)[C@@H](C)CC)[C@@H](C)CC)[C@@H](C)CC)[C@@H](C)CC)[C@@H](C)CC)[C@@H](C)CC)[C@@H](C)CC)[C@@H](C)CC [IKPIIKPIIKPIIKPIIKPIIKPIIKPI]

- MIC (Acinetobacter baumannii): 2 µM (≈ 3.87 µg/mL)
- MIC [6]: 8 µM (≈ 15.5 µg/mL)
- MIC (Escherichia coli K88): 8 µM (≈ 15.5 µg/mL)
- MIC (Escherichia coli K99): ≥ 32 µM
- MIC (Escherichia coli UB1005): ≥ 32 µM
- MIC (Escherichia coli): 16 µM (≈ 31 µg/mL)
- MIC (Klebsiella pneumoniae): > 64 µM
- MIC [7]: > 64 µM
- MIC [8]: ≥ 64 µM
- MIC [9]: ≥ 64 µM
- MIC [10]: > 64 µM
- MIC (Pseudomonas aeruginosa): > 64 µM
- MIC [11]: 8 µM (≈ 15.5 µg/mL)
- MIC [12]: 32 µM (≈ 61.9 µg/mL)
- MIC [13]: ≥ 64 µM
Structure (SMILES): CC(C)C[C@H](NC(=O)[C@@H]1CCCN1C(=O)[C@H](CCCN=C(N)N)NC(=O)[C@H](CC(C)C)NC(=O)[C@H](CC(C)C)NC(=O)[C@@H]1CCCN1C(=O)[C@H](CCCN=C(N)N)NC(=O)[C@H](CC(C)C)NC(=O)[C@H](CC(C)C)NC(=O)[C@@H]1CCCN1C(=O)[C@H](CCCN=C(N)N)NC(=O)[C@H](CC(C)C)NC(=O)[C@H](CC(C)C)NC(=O)[C@@H]1CCCN1C(=O)[C@H](CCCN=C(N)N)NC(=O)[C@@H](N)CC(C)C)C(N)=O [LRPLLRPLLRPLLRPL]
